From patent US20250127906A1, “SMALL-MOLECULE DEGRADERS OF CDK8 AND CDK19” (University of South Carolina, priority 2021, published 2025)

What was measured:
[1] = tested on: CDK8/CDK19/CCNC protein degradation and STAT1 S727 phosphorylation; experiment: Wash-off study in HEK-293 cells, Western blot; format: cell-based, human; conditions: HEK-293, within 24 hours after removal of drug-containing media
CDK8 [2] = target: T1, CDK8 (Homo sapiens, UniProt P49336); experiment: CDK8 degradation in RPMI 8226 cells (Western blot); format: cell-based; parameters: host or cells: RPMI 8226; conditions: RPMI 8226, concentrations used in FIG. 14A
CDK8 [3] = target: T2, CDK8 (Mus musculus, UniProt Q8R3L8); experiment: CDK8 degradation in murine CT26 colon carcinoma cells; format: cell-based; parameters: endogenous in cells; host or cells: CT26
T2 sequence (Q8R3L8 1-464): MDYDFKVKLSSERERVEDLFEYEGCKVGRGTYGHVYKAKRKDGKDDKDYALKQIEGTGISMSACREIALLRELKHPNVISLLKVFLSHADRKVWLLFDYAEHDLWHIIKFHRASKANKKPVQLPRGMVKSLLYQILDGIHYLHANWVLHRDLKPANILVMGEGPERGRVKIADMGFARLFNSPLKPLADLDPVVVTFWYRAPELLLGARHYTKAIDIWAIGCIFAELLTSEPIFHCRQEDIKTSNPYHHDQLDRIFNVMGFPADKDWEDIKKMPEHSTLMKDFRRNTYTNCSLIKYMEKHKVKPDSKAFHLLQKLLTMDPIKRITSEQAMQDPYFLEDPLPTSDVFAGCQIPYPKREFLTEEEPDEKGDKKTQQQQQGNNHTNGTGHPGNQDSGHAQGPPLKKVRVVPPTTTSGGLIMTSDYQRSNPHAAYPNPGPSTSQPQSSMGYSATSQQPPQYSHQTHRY
T2 sequence (Q62447 1-283 partner): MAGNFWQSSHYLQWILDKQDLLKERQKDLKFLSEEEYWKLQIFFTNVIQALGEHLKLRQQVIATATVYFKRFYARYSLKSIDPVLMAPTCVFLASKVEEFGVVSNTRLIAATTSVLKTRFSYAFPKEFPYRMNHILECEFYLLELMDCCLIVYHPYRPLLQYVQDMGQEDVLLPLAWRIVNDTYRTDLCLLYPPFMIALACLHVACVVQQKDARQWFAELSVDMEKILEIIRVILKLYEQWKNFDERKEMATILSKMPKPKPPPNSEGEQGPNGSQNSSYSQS
Description: Both the extent and the kinetics of CDK8 degradation were similar between two cell lines, with the degradation reaching maximum at about 8 hrs of PROTAC treatment.

[4] = tested on: pS727 STAT1 and total STAT1; experiment: pS727 STAT1 and total STAT1 in CT26 tumors in Balb/c mice; format: in vivo; conditions: oral gavage 20 mg/kg, 2, 8 or 24 hrs after dosing
Experimental: CT26 cells were injected subcutaneously into syngeneic Balb/c female mice and allowed to grow to 150˜200 mm^3. Tumor-bearing mice then received PROTACs IA7882 or IA7886 by oral gavage at 20 mg/kg in 30% propylene glycol/70% PEG-400 vehicle. Tumors were collected 2, 8 or 24 hrs after dosing and used to measure protein levels of CDK8, pS727 STAT1 and total STAT1 (by western blotting) and mRNA expression of CCL12, a gene that is inhibited by different CDK8/19 inhibitors in CT26 tumors in vivo (by QPCR).

MV4-11 cells = experiment: Long-term growth of MV4-11 cells under continuous treatment; format: cell-based, human; conditions: MV4-11, 300 nM continuous
Experimental: The anti-proliferative effects of a PROTAC and a kinase inhibitor were compared in leukemia cell lines. In the long-term treatment experiment shown in FIG. 11A, Jurkat cells (0.1 million cells) were continuously treated with vehicle control (0.1% DMSO), 300 nM BI-1347 or 300 nM IA7886 for 53 days (each condition in biological triplicates). Every 7-8 days, live cells were counted using BioRAD TC20 Automated Cell Counter with trypan blue staining: 0.1 million live cells were passaged to a new T25 flask to propagate under the same treatment conditions. The survival fraction was calculated by dividing the accumulated number of drug-treated cells with the accumulated number of vehicle-treated cells. […] This sustained inhibition property of PROTAC was also observed in MV4-11, a leukemia cell line highly sensitive to CDK8/19 kinase inhibitors.

CDK8 [5] = target: T1, CDK8; experiment: CDK8 degradation in HEK-293 cells (Western blot, normalized by GAPDH); format: cell-based; parameters: endogenous in cells; host or cells: HEK-293
Procedure, shortened: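 HEK-293 cells were treated for 24 h with or without compound, at 1 μM or 0.3 μM for single-point testing. RIPA lysates were immunoblotted for CDK8, and densitometry gave levels normalized to GAPDH. DC50 is the concentration that reduces CDK8 to half its level in untreated cells.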

RPMI 8226 cells = experiment: Concentration dependence of RPMI 8226 growth inhibition; format: cell-based; conditions: Homo sapiens, 96 h; RPMI 8226, 4-day growth inhibition

T1 sequence (P49336 whole entry): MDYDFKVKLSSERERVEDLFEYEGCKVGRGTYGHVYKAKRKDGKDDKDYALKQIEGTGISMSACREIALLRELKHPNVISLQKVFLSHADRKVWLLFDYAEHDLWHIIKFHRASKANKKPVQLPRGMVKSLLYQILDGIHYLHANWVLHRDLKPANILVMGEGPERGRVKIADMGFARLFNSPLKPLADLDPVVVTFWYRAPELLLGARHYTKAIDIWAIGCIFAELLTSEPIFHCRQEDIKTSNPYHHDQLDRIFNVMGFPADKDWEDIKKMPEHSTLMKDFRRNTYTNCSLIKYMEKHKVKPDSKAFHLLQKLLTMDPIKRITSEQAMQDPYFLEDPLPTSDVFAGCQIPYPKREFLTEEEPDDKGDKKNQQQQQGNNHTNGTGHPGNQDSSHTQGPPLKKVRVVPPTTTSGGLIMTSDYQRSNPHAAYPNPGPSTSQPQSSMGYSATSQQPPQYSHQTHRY
T1 sequence (P24863 whole entry partner): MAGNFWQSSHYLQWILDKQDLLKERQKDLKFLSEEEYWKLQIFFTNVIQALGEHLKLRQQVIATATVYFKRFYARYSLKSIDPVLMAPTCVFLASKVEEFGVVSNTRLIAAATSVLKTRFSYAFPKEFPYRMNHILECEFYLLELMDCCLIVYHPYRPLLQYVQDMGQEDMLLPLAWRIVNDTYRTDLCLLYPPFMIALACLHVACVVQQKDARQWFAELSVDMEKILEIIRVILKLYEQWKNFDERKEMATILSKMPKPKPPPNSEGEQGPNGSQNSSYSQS

- time at which CDK8 degradation reaches maximum (CDK8 [3]; 100 nM): about 8 hrs
- % CDK8 remaining (CDK8 [5]; HEK-293 cells, 24 hours, tested at 1 μM): 19%
- CDK8 degradation (in words) (CDK8 [5]; HEK-293 cells, Western blot): most potent CDK8 degrader in this set
- DC50 (CDK8 [5]; HEK-293 cells, concentration degrading CDK8 to half of level in untreated cells): 2.8 nM
- time at which CDK8 degradation reaches maximum (CDK8 [5]; human 293 cells, 100 nM): about 8 hrs
SMILES: O=C(CCCNc1cccc2c1C(=O)N(C1CCC(=O)NC1=O)C2=O)NCCCCCCCCCCC(=O)N1CCN(C(=O)Cn2cc(-c3ccc(-c4cncc5ccccc45)cc3)cn2)CC1 (centres unmarked) [IA7886, 4-[[2-(2,6-dioxo-3-piperidyl)-1,3-dioxo-isoindolin-4-yl]amino]-N-[11-[4-[2-[4-[4-(4-isoquinolyl)phenyl]pyrazol-1-yl]acetyl]piperazin-1-yl]-11-oxo-undecyl]butanamide]
- effects on CDK8/CDK19/CCNC protein degradation and STAT1 S727 phosphorylation after removal of drug [1]: remained nearly unchanged
- CDK8 degradation (in words) (CDK8 [2]): efficiently degraded CDK8 in RPMI 8226 cells
- CDK8 degradation (in words) (CDK8 [3]): induce CDK8 degradation in both cell lines
- pS727 STAT1 and total STAT1 in tumors [4]: decreased in most of the tumors collected 2 hrs or 8 hrs after dosing
- growth inhibition over 60 days (MV4-11 cells): much more stable and continued for the entire 60 days
- IC50 (RPMI 8226 cells): 24 nM
